Each structure is given as a SMILES string.

The values that follow come from US20260272908A1 (VANDERBILT UNIVERSITY, priority 2023, published 2026).

For one assay, the system named is Meta3 organoids. As to the kind of experiment: Meta3 metaplastic organoid growth and survival (organoid diameter, phase-contrast). It counts as cell-based, mouse. The conditions noted are these: trametinib 1 μM, pyrvinium 100 nM, 3 days. As to the method:
All experiments were repeated at least three times.
All experiments were performed at least in triplicate.

The next assay has as its system Wnt-target genes. As to the kind of experiment: Real-time PCR for Wnt-target genes in Meta4 organoids. The settings on record: pyrvinium 100 nM. The format is cell-based, mouse. As to the method:
Mean±SD. One-way ANOVA with Tukey's multiple comparisons.
Total RNAs were extracted from Meta3 or Meta4 organoids using the Trizol (Invitrogen) reagent. cDNAs were synthesized using iScript gDNA clear cDNA synthesis kit (Bio-Rad) and RT-PCR was performed using SsoAdvanced™ Universal SYBR Green supermix (Bio-Rad) and a CFX96 Real-Time PCR Detection System (Bio-Rad). GAPDH, a house keeping gene, was used to normalize gene expression levels. All reactions were performed in triplicate and relative gene expression levels were obtained by the comparative ΔΔCt method using CFX Maestro software (Bio-Rad).
On the technique in general: In qPCR the cycle at which signal appears reflects the starting amount.

The test system of another assay is phospho-STAT3 (p-STAT3). The assay can be described thus: Western blot for phospho-STAT3 in Meta3 and Meta4 organoids. The format is cell-based, mouse. As for the experimental part: FIG. 3C-3D show the Western blot analysis for p-STAT3 and p-ERK in Meta3 and Meta4 organoids (FIG. 3C) and ratios of p-STAT3/total STAT3 and p-ERK/total ERK (FIG. 3D). […] FIG. 3F-3G show phase-contrast images of Meta4 organoids treated with DMSO, Pyr (100 nM), STAT3-IN-1 (1 μM), Stattic (2 μM), and Cryptotanshinone (CPT) (5 μM) for 3 days (FIG. 3F), and quantitation of organoid diameters before and after treatment (FIG. 3G). FIG. 3H-3I show phase-contrast images of Meta4 organoids treated with DMSO, trametinib (Tra), STAT3-IN-1, combination of Tra and STAT3-IN-1, and Pyr, for 3 days (FIG. 3H), and quantitation of organoid diameters before and after treatment (FIG. 3I). FIG. 3J-3K show western blot for p-STAT3 and p-ERK after treatment of Tra, Pyr, and SSTC3 (FIG. 3J) and ratios of p-STAT3/t-STAT3 and p-ERK/t-ERK (FIG. 3K). […] Relative quantification of each gene expression level was normalized to GAPDH gene expression. Shading scale represents the mRNA expression values. FIG. 3M show representative mRNA of Pim-1 and Cyclin-B1 after treatment. Mean±standard deviation. […] Scale bar=500 μM.
Total proteins were extracted from organoids using radioimmunoprecipitation assay buffer (10 mmol/L Tris-HC, pH 7.2, 150 mmol/L NaCl, 5 mmol/L EDTA, 0.1% sodium dodecyl sulfate, 1.0% Triton X-100, 1% deoxycholate) with protease inhibitors. The protein concentration was measured The Bio-Rad Protein Assay (Bio-Rad Laboratories, Hercules, CA). 5 to 10 μg of total protein was loaded onto 12.5% or 10% sodium dodecyl sulfate/polyacrylamide gel electrophoresis (PAGE) and transferred onto polyvinylidene difluoride membranes (Millipore, Billerica, MA). […] After washes with TBS-T, chemiluminescence was detected with an Amersham Imager 680 instrument (GE Healthcare) after 1 mL of the SuperSignal West Femto Maximum Sensitivity Substrate (ThermoFisher) was applied to the membranes.
(In general: Immunoblotting shows a protein as a band on a membrane.)

In the next assay the test system is p-STAT3^Y705. The assay can be described thus: Western blot for phospho-STAT3 in hPCO lines. The format is cell-based, human. The source says:
FIG. 7C-7D show Western blot analysis for p-STAT3 and p-ERK in three Pyr-resistant hPCO lines after Pyr treatment (FIG. 7C) and ratios of p-STAT3/t-STAT3 and p-ERK/t-ERK (FIG. 7D). FIG. 7E-7F show a Western blot for basal p-STAT3 and p-ERK levels in Pyr-sensitive and Pyr-resistant hPCO lines (FIG. 7E), and ratios of p-STAT3/t-STAT3 and p-ERK/t-ERK (FIG. 7F). FIG. 7G-7H show a Western blot for p-STAT3 and p-ERK in hPCO-3 after treatment of trametinib (Tra), Pyr, and their combinations (FIG. 7G), and ratios of p-STAT3/t-STAT3 and p-ERK/t-ERK (FIG. 7H). […] FIG. 7K-7L show phase-contrast images of Pyr-sensitive hPCO-2 treated with DMSO, Pyr, STAT3-IN-1, Sttatic, and Cryptotanshinone (CPT) for 6 days (FIG. 7K) and quantitation of organoid diameters before and after treatment (FIG. 7L). Mean±standard deviation. […]
Total proteins were extracted from organoids using radioimmunoprecipitation assay buffer (10 mmol/L Tris-HC, pH 7.2, 150 mmol/L NaCl, 5 mmol/L EDTA, 0.1% sodium dodecyl sulfate, 1.0% Triton X-100, 1% deoxycholate) with protease inhibitors. The protein concentration was measured The Bio-Rad Protein Assay (Bio-Rad Laboratories, Hercules, CA). […] After washes with TBS-T, chemiluminescence was detected with an Amersham Imager 680 instrument (GE Healthcare) after 1 mL of the SuperSignal West Femto Maximum Sensitivity Substrate (ThermoFisher) was applied to the membranes.

Take `Cc1cc(/C=C/c2ccc3cc(N(C)C)ccc3[n+]2C)c(C)n1-c1ccccc1` [pyrvinium]: the “organoid size compared to control organoids treated with DMSO” value with Meta3 organoids is recorded as “significant reduction in size”. The Wnt-target gene expression result in the assay on Wnt-target genes (6 or 24 hours) is “not downregulated”. Also, the “expression of Axin2, Cdca4, Rnf43, and Znrf3” value with Wnt-target genes (24 hours after treatment) is on record as “increased”. The “phosphorylation of STAT3^Y705” value in the assay on phospho-STAT3 (p-STAT3) (Meta3) is given as “reduced phosphorylation”; in the assay with phospho-STAT3 (p-STAT3) (Meta4, 3 days), “significant reduction”. The “p-STAT3^Y705 levels” value in the assay with p-STAT3^Y705 (three pyrvinium-resistant hPCO lines) is reported as “no significant differences”; with p-STAT3^Y705 (three pyrvinium-sensitive hPCO lines), “decreased”.
